Laboratory results as given in patent publication US12600728B2, “Interleukin-17 inhibitors” (priority 2020, dated 2026).
Read-outs that look alike come from different tables or passages of the source.

Target: biotinylated human IL-17A / AF647-labeled human IL-17RA (Homo sapiens, UniProt Q16552)
Assay: Human IL-17A×IL-17RA TR-FRET assay
Assay type: binding
Procedure: Human IL-17A×IL-17RA TR-FRET Assay
Each compound concentration is tested in duplicate.
The final total assay volume is 10 μL.
Each plate contains test compounds in columns 1-22 and controls in columns 23 and 24. The neutral control (NC) contains all the assay components, but DMSO instead of test compound. […] The fluorescence values for emission at 615 nm and 665 nm are loaded to the evaluation software Helios.
From the activity data at each compound concentration, the IC50 values are obtained using the 4-parameter logistic function (“Hill-slope model”) of Helios.

[1] = TR-FRET, biotinylated human IL-17A 5 nM, AF647-labeled human IL-17RA 30 nM, read-out: IL17AA FRET/ IL17Rawt IC50
[2] = IL17AA FRET/ IL17Rawt IC50, TR-FRET, biotinylated human IL-17A 5 nM, AF647-labeled human IL-17RA 30 nM
[3] = TR-FRET, 5 nM IL-17A, 30 nM IL-17RA, read-out: IL17AA FRET/ IL17Rawt IC50
[4] = IL17AA FRET/ IL17Rawt IC50, TR-FRET, 5 nM IL-17A, 30 nM IL-17RA

biotinylated human IL-17A / AF647-labeled human IL-17RA, sequence (Q16552 24-155): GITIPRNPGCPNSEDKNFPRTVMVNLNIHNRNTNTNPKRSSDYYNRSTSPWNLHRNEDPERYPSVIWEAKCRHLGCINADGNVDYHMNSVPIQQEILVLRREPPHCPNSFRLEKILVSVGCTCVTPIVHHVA

| SMILES | IC50 [1] | IC50 [3] | further results |
| --- | --- | --- | --- |
| CCn1nccc1C(=O)N[C@@H](C(=O)Nc1ccc(-c2c(Cl)cc[n+]([O-])c2C)cc1)C1CCC(F)(F)CC1 (single isomer, unassigned) [Example 13b] | 30400 nM | – | – |
| Cc1c(-c2ccc(NC(=O)C(NC(=O)c3ccnn3C)C3CC4C(C3)C4(F)F)cc2)c(Cl)cc[n+]1[O-] (single isomer, unassigned) [Example 54b] | – | – | IC50 [2]: 10900 nM |
| Cc1cc[n+]([O-])c(C)c1-c1ccc(NC(=O)C(NC(=O)c2ccc3n2CCN(C)C3)C2CC3CC3C2)cc1 (single isomer, unassigned) [Example 150] | – | 464 nM | – |
| CCn1nccc1C(=O)NC(C(=O)Nc1ccc(-c2c(C(F)(F)F)cc[n+]([O-])c2C)cc1)C1CC2CC2C1 (single isomer, unassigned) [Example 154] | – | – | IC50 [4]: 6300 nM |
| CCn1nccc1C(=O)NC(C(=O)Nc1ccc(-c2c(Cl)cc[n+]([O-])c2C)cc1)C1CCC(C(F)(F)F)CC1 [Example 20, 4-chloro-3-(4-((S)-2-(1-ethyl-1H-pyrazole-5-carboxamido)-2-((1r,4S)-4-(trifluoromethyl)cyclohexyl)acetamido)phenyl)-2-methylpyridine 1-oxi] | 680 nM | – | – |
| Cc1nc(C(F)(F)F)c(C(=O)N[C@H](C(=O)Nc2ccc(-c3c(C(F)(F)F)cc[n+]([O-])c3C)cc2)C2CCCC2)s1 [Example 73, (S)-3-(4-(2-cyclopentyl-2-(2-methyl-4-(trifluoromethyl)thiazole-5-carboxamido)acetamido)phenyl)-2-methyl-4-(trifluoromethyl)pyridine 1-oxide] | 1410 nM | – | – |
| Cc1cc[n+]([O-])cc1-c1ccc(NC(=O)[C@@H](NC(=O)c2ccnn2C)C2CCCCC2)cc1 [Example 81, (S)-3-(4-(2-cyclohexyl-2-(1-methyl-1H-pyrazole-5-carboxamido)acetamido)phenyl)-4-methylpyridine 1-oxide] | 3740 nM | – | – |
| Cc1c[n+]([O-])cc(C)c1-c1ccc(NC(=O)[C@@H](NC(=O)c2ccnn2C2CC2)C2CCCCC2)cc1 [Example 98, (S)-4-(4-(2-cyclohexyl-2-(1-cyclopropyl-1H-pyrazole-5-carboxamido)acetamido)phenyl)-3,5-dimethylpyridine 1-oxide] | 1400 nM | – | – |
| Cc1c[n+]([O-])ccc1-c1ccc(NC(=O)[C@@H](NC(=O)c2ccnn2C)C2CCCCC2)cc1 [Example 111, (S)-4-(4-(2-cyclohexyl-2-(1-methyl-1H-pyrazole-5-carboxamido)acetamido)phenyl)-3-methylpyridine I-oxide] | – | – | IC50 [2]: 4780 nM |
| Cc1cc[n+]([O-])c(F)c1-c1ccc(NC(=O)[C@@H](NC(=O)c2ccnn2C)C2CCCCC2)cc1 [Example 114, (S)-3-(4-(2-cyclohexyl-2-(1-methyl-1H-pyrazole-5-carboxamido)acetamido)phenyl)-2-fluoro-4-methylpyridine 1-oxide] | 2790 nM | – | – |
| Cc1cc[n+]([O-])c(C)c1-c1ccc(NC(=O)[C@@H](NC(=O)c2ccc3n2CCN(C2CC2)C3)C2CCCCC2)cc1 [Example 131, (S)-3-(4-(2-cyclohexyl-2-(2-cyclopropyl-1,2,3,4-tetrahydropyrrolo[1,2-a]pyrazine-6-carboxamido)acetamido)phenyl)-2,4-dimethylpyridine 1-oxide] | 102 nM | – | – |
| Cc1cc[n+]([O-])c(C)c1-c1ccc(NC(=O)[C@@H](NC(=O)c2ccc3n2CCN(C)C3)[C@H]2CCCC(F)(F)C2)cc1 [Example 152, 3-(4-((S)-2-((S)-3,3-difluorocyclohexyl)-2-(2-methyl-1,2,3,4-tetrahydropyrrolo[1,2-a]pyrazine-6-carboxamido)acetamido)phenyl)-2,4-dimethylpyridine 1-oxide] | – | 391 nM | – |
| Cc1c(-c2ccc(NC(=O)[C@@H](NC(=O)c3ccc4n3CCN(C)C4)[C@H]3CCCC(F)(F)C3)cc2)c(C(F)(F)F)cc[n+]1[O-] [Example 166, 3-(4-((S)-2-((S)-3,3-difluorocyclohexyl)-2-(2-methyl-1,2,3,4-tetrahydropyrrolo[1,2-a]pyrazine-6-carboxamido)acetamido)phenyl)-2-methyl-4-(trifluoromethyl)pyridine 1-oxide] | – | 358 nM | – |
| Cc1cc[n+]([O-])cc1-c1ccc(NC(=O)[C@@H](NC(=O)c2ccnn2C)C2CCCCC2)cc1F [Example 168, (S)-3-(4-(2-cyclohexyl-2-(1-methyl-1H-pyrazole-5-carboxamido)acetamido)-2-fluorophenyl)-4-methylpyridine 1-oxide] | – | – | IC50 [4]: 1470 nM |
| COCc1nocc1C(=O)N[C@H](C(=O)Nc1ccc(-c2cc(Cl)c[n+]([O-])c2C)cc1)C1CCC(F)(F)CC1 [Example 176, (S)-5-chloro-3-(4-(2-(4,4-difluorocyclohexyl)-2-(3-(methoxymethyl)isoxazole-4-carboxamido)acetamido)phenyl)-2-methylpyridine 1-oxide] | – | 1610 nM | – |
| Cc1c(-c2ccc(NC(=O)[C@@H](NC(=O)c3ccnn3C)C3CCC(F)(F)CC3)cc2)cc(Cl)c[n+]1[O-] [Example 177, (S)-5-chloro-3-(4-(2-(4,4-difluorocyclohexyl)-2-(1-methyl-1H-pyrazole-5-carboxamido)acetamido)phenyl)-2-methylpyridine 1-oxide] | – | – | IC50 [4]: 2110 nM |

Further lines, with some results ahead:

| IC50 [1] | IC50 [3] | SMILES | further results |
| --- | --- | --- | --- |
| 382 nM | – | Cc1c(-c2ccc(NC(=O)[C@@H](NC(=O)c3ccc4n3CCN(C)C4)C3CCC(F)CC3)cc2)c(Cl)cc[n+]1[O-] (mixture of isomers) [Example 129, 4-chloro-3-(4-((2S)-2-(4-fluorocyclohexyl)-2-(2-methyl-1,2,3,4-tetrahydropyrrolo[1,2-a]pyrazine-6-carboxamido)acetamido)phenyl)-2-methylpyridine 1-oxide] | – |
| 78900 nM | – | Cc1cc[n+]([O-])c(C)c1-c1ccc(NC(=O)C(NC(=O)c2ccnn2C)C2(C)CCCCC2)cc1 (stereo not drawn) [Example 43, 2,4-dimethyl-3-(4-(2-(1-methyl-1H-pyrazole-5-carboxamido)-2-(1-methylcyclohexyl)acetamido)phenyl)pyridine 1-oxide] | – |
| 4450 nM | – | Cc1cc[n+]([O-])c(C)c1-c1ccc(NC(=O)[C@@H](NC(=O)c2conc2CN(C)C)C2CCCCC2)cc1 [Example 80, (S)-3-(4-(2-cyclohexyl-2-(3-((dimethylamino)methyl)isoxazole-4-carboxamido)acetamido)phenyl)-2,4-dimethylpyridine 1-oxide] | – |
| 20900 nM | – | Cc1c(-c2ccc(NC(=O)[C@@H](NC(=O)c3ccnn3C)C3CCCCC3)c(Cl)c2)c(Cl)cc[n+]1[O-] [Example 85, (S)-4-chloro-3-(3-chloro-4-(2-cyclohexyl-2-(1-methyl-1H-pyrazole-5-carboxamido)acetamido)phenyl)-2-methylpyridine 1-oxide] | – |
| 866 nM | – | Cc1cc[n+]([O-])c(C)c1-c1ccc(NC(=O)[C@@H](NC(=O)c2ccc3n2CCN(C2COC2)C3)[C@H]2CC[C@H](C(F)(F)F)CC2)cc1 [Example 132, 2,4-dimethyl-3-(4-((S)-2-(2-(oxetan-3-yl)-1,2,3,4-tetrahydropyrrolo[1,2-a]pyrazine-6-carboxamido)-2-((1r,4S)-4-(trifluoromethyl)cyclohexyl)acetamido)phenyl)pyridine 1-oxide] | – |
| 451 nM | – | COCCN1CCn2c(ccc2C(=O)N[C@H](C(=O)Nc2ccc(-c3c(C)cc[n+]([O-])c3C)cc2)C2CCCCC2)C1 [Example 135, (S)-3-(4-(2-cyclohexyl-2-(2-(2-methoxyethyl)-1,2,3,4-tetrahydropyrrolo[1,2-a]pyrazine-6-carboxamido)acetamido)phenyl)-2,4-dimethylpyridine 1-oxide] | – |
| – | 798 nM | Cc1cc[n+]([O-])c(C)c1-c1ccc(NC(=O)[C@@H](NC(=O)c2ccc3n2CCN(C)C3)C2CCCC2)cc1 [Example 153, (S)-3-(4-(2-cyclopentyl-2-(2-methyl-1,2,3,4-tetrahydropyrrolo[1,2-a]pyrazine-6-carboxamido)acetamido)phenyl)-2,4-dimethylpyridine 1-oxide] | – |
| – | 1150 nM | Cc1cc[n+]([O-])c(C)c1-c1ccc(NC(=O)[C@@H](NC(=O)c2conc2CO)C2CCC(F)(F)CC2)cc1 [Example 155, (S)-3-(4-(2-(4,4-difluorocyclohexyl)-2-(3-(hydroxymethyl)isoxazole-4-carboxamido)acetamido)phenyl)-2,4-dimethylpyridine 1-oxide] | – |
| – | 301 nM | Cc1c(-c2ccc(NC(=O)C(NC(=O)c3ccc4n3CCN(C)C4)[C@@H]3C[C@@H]4[C@H](C3)C4(F)F)cc2)c(Cl)cc[n+]1[O-] (stereo partly drawn) [Example 165, 4-chloro-3-(4-(2-((1R,3s,5S)-6,6-difluorobicyclo[3.1.0]hexan-3-yl)-2-(2-methyl-1,2,3,4-tetrahydropyrrolo[1,2-a]pyrazine-6-carboxamido)acetamido)phenyl)-2-methylpyridine 1-oxide] | – |
| – | 316 nM | Cc1cc[n+]([O-])c(C)c1-c1ccc(NC(=O)[C@@H](NC(=O)c2ccc3n2CCNC3)[C@H]2CCCC(F)(F)C2)cc1 [Example 208, 3-(4-((S)-2-((S)-3,3-difluorocyclohexyl)-2-(1,2,3,4-tetrahydropyrrolo[1,2-a]pyrazine-6-carboxamido)acetamido)phenyl)-2,4-dimethylpyridine 1-oxide] | – |
| – | 478 nM | CC(=O)N1CCn2c(ccc2C(=O)N[C@H](C(=O)Nc2ccc(-c3c(C(F)(F)F)cc[n+]([O-])c3C)cc2)C2CCC(F)(F)CC2)C1 [Example 210, (S)-3-(4-(2-(2-acetyl-1,2,3,4-tetrahydropyrrolo[1,2-a]pyrazine-6-carboxamido)-2-(4,4-difluorocyclohexyl)acetamido)phenyl)-2-methyl-4-(trifluoromethyl)pyridine 1-oxide] | – |
